The target of the test is Kappa-type opioid receptor (Homo sapiens) (UniProt P41145). The experiment in a line: kappa opioid receptor activation potency – imaging, image-based, SAR follow-up (AID 2359). Particulars: KOR agonist image-based assay (receptor translocation imaging).

The values that follow come from PubChem BioAssay AID2359 (Sanford-Burnham Center for Chemical Genomics, 2010).

Each structure is given as a SMILES string.

Sequence of Kappa-type opioid receptor (Homo sapiens) (P41145 whole entry, looked up): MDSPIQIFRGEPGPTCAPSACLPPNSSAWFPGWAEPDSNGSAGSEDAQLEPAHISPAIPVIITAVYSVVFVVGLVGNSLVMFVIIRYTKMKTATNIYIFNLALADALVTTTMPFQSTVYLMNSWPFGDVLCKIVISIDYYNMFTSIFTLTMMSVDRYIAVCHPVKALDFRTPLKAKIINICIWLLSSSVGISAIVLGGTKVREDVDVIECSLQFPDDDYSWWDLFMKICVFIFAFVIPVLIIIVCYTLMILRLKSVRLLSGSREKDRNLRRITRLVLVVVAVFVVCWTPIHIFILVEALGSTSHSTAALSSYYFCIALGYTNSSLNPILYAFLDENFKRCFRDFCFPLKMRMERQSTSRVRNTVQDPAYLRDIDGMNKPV

Consider `COc1ccc(CN(Cc2ccccn2)C(=O)CN2C(=O)COc3ccccc32)cc1`, for which the EC50 (in general, the concentration that produces a half-maximal response) was 10.1 µM. The same measure for `CCCCN(Cc1cc2cc(C)ccc2[nH]c1=O)C(=O)c1ccccn1`: 4.93 µM.
